Data set [1] can be described thus: Pharmacokinetics after single dose oral administration in rats. In kind it is in vivo, male Sprague Dawley rats. As to conditions: rat; for half-life: po, 50 mg/kg. The method, then: The pharmacokinetics of ivacaftor (50 mg/kg in organic and 0.25% Methyl Cellulose in water suspension) in male Sprague Dawley rats after single dose oral administration and compound 15 in 0.25% Methyl Cellulose in water suspension at 108 mg-eq/kg (50 mg/kg equivalent to free base) 324 mg-eq/kg (150 mg/kg equivalent to free base) 540 mg-eq/kg (250 mg/kg equivalent to free base) and 756 mg-eq/kg (350 mg/kg equivalent to free base) were investigated. […] The plasma concentration vs. time profile for these experiments are show in FIG. 3.

Data set [2] is described as follows: Solubility in various buffers. In kind it is physicochemical. As to conditions: for pH: pH of solubility sample. The method, then: The solubility of crystalline compound 15 was measured in the various buffers.
Setting [3] is: male, Sprague Dawley, plasma, ivacaftor 50 mg/kg, Crystalline Suspension (0.25% Methyl Cellulose in water).

≈ marks a conversion by molar mass, not a printed value. Where two headings read alike, the source gives them in different places.

By AUC(0-t) is commonly meant the area under the concentration-time curve up to a stated or last time point. The low end stands for low exposure, the high end for high exposure. Broadly, the Cmax is the maximum level reached in the sampled fluid or tissue. As usually defined, the half-life is the time in which the quantity being followed falls by half. Read a low half-life as rapid decline. Broadly, the solubility is the concentration that dissolves in the medium under given conditions. `CC(C)(C)c1cc(C(C)(C)C)c(NC(=O)c2c[nH]c3ccccc3c2=O)cc1O` [ivacaftor, N-(2,4-di-tert-butyl-5-hydroxyphenyl)-4-oxo-1,4-dihydroquinoline-3-carboxamide, reference compound]: in data set [1] (setting [3]), the exposure AUC(0-t) was 14600 ng·h/mL. In data set [1] (setting [3]), this molecule registered a Cmax of 586 ng/mL. Further, the half-life in data set [1] (male, Sprague Dawley, plasma, Organic Solution) was 10 h; in data set [1] (setting [3]) it was 20 h. In addition, in data set [1] (ivacaftor 50 mg/kg), the “reduction in AUC, crystalline suspension vs organic solution formulation” value came to 92%. For the same molecule, the solubility in data set [2] (FaSSIF.V2, fassif, thermodynamic from solid, read-out: Solubility) was 15 µg/mL (≈ 38.2 µM); in data set [2] (FeSSIF.V2, fessif, thermodynamic from solid, read-out: Solubility) it was 152 µg/mL (≈ 387 µM); in data set [2] (FeSSIF.V2, ivacaftor as SDD, read-out: Solubility) it was 600 µg/mL (≈ 1530 µM); in data set [2] (SGF, simulated gastric fluid, thermodynamic from solid, read-out: Solubility), 21 µg/mL (≈ 53.5 µM); in data set [2] (Water), 7 µg/mL (≈ 17.8 µM); in data set [2] (phosphate buffer, aqueous buffer, thermodynamic from solid, pH 6.8 PO4^3− buffer, read-out: Solubility), 8 µg/mL (≈ 20.4 µM). In addition, the pH in data set [2] (FaSSIF.V2) is 6.35; in data set [2] (FeSSIF.V2), 5.91; in data set [2] (SGF), 2.20; in data set [2] (Water), 7.35; in data set [2] (pH 6.8 PO4^3− buffer), 6.71.

Take `CC(C)OC(=O)[C@H](C)N[P@@](=O)(OCCN1CCOCC1)Oc1cc(NC(=O)c2c[nH]c3ccccc3c2=O)c(C(C)(C)C)cc1C(C)(C)C.O=C(O)CCC(=O)O` [Compound 15]: in data set [1] (crystalline aqueous suspension, dosed up to 350 mg/kg), the “dose dependence of exposure of ivacaftor, in words” value is on record as “dose proportional increase in the exposure of ivacaftor”. In addition, the “reduction in AUC with crystalline aqueous suspension, in words” value in data set [1] (dosed up to 350 mg/kg) is given as “such reduction was not observed”. Also, the “Observation after 24 hrs” value is “Suspension” in data set [2] (FaSSIF.V2); “Clear” in data set [2] (FeSSIF.V2); “Clear” in data set [2] (SGF); “Slightly Hazy” in data set [2] (Water); “Suspension” in data set [2] (pH 6.8 PO4^3− buffer). Also, the “solubility compared with ivacaftor, in words” value in data set [2] (FeSSIF and simulated gastric fluid) is “significant improvement in solubility”. In addition, the solubility in data set [2] (aqueous buffer, thermodynamic from solid, pH 6.8 PO4^3− buffer, read-out: Solubility) was below 2 µg/mL; in data set [2] (simulated gastric fluid, thermodynamic from solid, SGF, read-out: Solubility) it was 1430 µg/mL; in data set [2] (thermodynamic from solid, FaSSIF.V2, read-out: Solubility), 86 µg/mL; in data set [2] (thermodynamic from solid, FeSSIF.V2, read-out: Solubility), 1810 µg/mL; in data set [2] (water, thermodynamic from solid, read-out: Solubility), 787 µg/mL. The pH in data set [2] (FaSSIF.V2) was 6.09; in data set [2] (FeSSIF.V2), 5.83; in data set [2] (SGF) it was 1.96; in data set [2] (Water), 3.57; in data set [2] (pH 6.8 PO4^3− buffer), 6.71.

The values above are taken from US20240383932A1, “Phenol Prodrugs” (Lilac Therapeutics, Inc., priority 2023, published 2024).
